Tested on: non-insulin dependent type II diabetes patients
Experiment: Clinical test II
Type: in vivo, human
Conditions: for Fasting blood sugar: before medication 108.8 ± 15.10; for number of patients with fasting blood sugar level No change or increase / number of patients with reduction rate of fasting blood sugar level 20-10% / number of patients with reduction rate of fasting blood sugar level <10% / number of patients with reduction rate of fasting blood sugar level >20% / number of patients with total serum cholesterol No change or increase / number of patients with total serum cholesterol decreasing rate 20-10% / number of patients with total serum cholesterol decreasing rate <10% / number of patients with total serum cholesterol decreasing rate >20%: 12 weeks
Experimental: On the other hand, Clinical test II was performed in a group of 79 participants from non-insulin dependent diabetic patients.
79 non-insulin dependent type II diabetes patients whose blood sugar is well-controlled under dietary therapy (all were mongoloid Japanese) participated in Clinical test II. They were forbidden to use sulfonyl urea and biguanide agent which is a therapeutic agent for type II diabetes, and a fibrate series medicament, nicotinic acid, and probucol which is a serum fat decreasing agent; however use of an antihypertensive agent is not particularly prohibited. They participated on a voluntary basis after they signed informed consent for clinical test participation, which was proposed by a medical institution based on the Helsinki declaration. The participants consisted of 26 males and 53 females. An average age at the sign-up time was 58±9.9 years old (average value±standard deviation), ranging from 37 to 81 years old. The body weight of patients was divided by standard body weight obtained from the standard body-weight table issued by Meiji life Insurance Company. This index was 1.24±0.154 (average value±standard deviation) at the sign-up time, meaning that there are many obese persons. After 12 weeks, the body weight index decreased to 1.18±0.137(average value±standard deviation).
The number of patients having normal blood pressure was 58 (of them, 31 patients were taking an antihypertensive agent).

[1] = Normal blood sugar group FBS < 130 mg/dl, 12th week
[2] = body weight fluctuation: No change or increase (total 29)
[3] = body weight fluctuation: No change or increase (total 31)
[4] = body weight fluctuation: Reduction of 3 kg or less (total 24)
[5] = body weight fluctuation: Reduction of 3 kg or less (total 25)
[6] = body weight fluctuation: Reduction of 3 kg or more (total 13)
[7] = body weight fluctuation: Reduction of 3 kg or more (total 18)

## COc1c(Cl)c(C)c(C=O)c(O)c1C/C=C(C)/C=C/[C@@]1(C)[C@H](C)CCC(=O)[C@@H]1C [4-O-methylascochlorin]
Normal blood sugar group FBS < 130 mg/dl, 8th week
  Fasting blood sugar: 109.0 ± 17.34 mg/dL
[1]
  Fasting blood sugar, change vs before medication: ns (n = 25)
  Fasting blood sugar: 106.4 ± 17.80 mg/dL
Normal group <220 mg/dl, 4th week, before medication 188.9 ± 21.55
  Total serum cholesterol: 177.9 ± 31.91 mg/dL
Normal group <220 mg/dl, 4th week, ns. = No significant difference
  Total serum cholesterol, change vs before medication: ns. (n = 14)
Normal group <220 mg/dl, 8th week, before medication 188.9 ± 21.55
  Total serum cholesterol: 176.0 ± 36.33 mg/dL
Normal group <220 mg/dl, 8th week, ns. = No significant difference
  Total serum cholesterol, change vs before medication: ns. (n = 14)
Normal group <220 mg/dl, 12th week, before medication 188.9 ± 21.55
  Total serum cholesterol: 181.2 ± 32.10 mg/dL
Normal group <220 mg/dl, 12th week, ns. = No significant difference
  Total serum cholesterol, change vs before medication: ns. (n = 18)
Super high cholesterol group >300 mg/dl, 4th week
  Total serum cholesterol, change vs before medication: −20.0% (n = 20)
Super high cholesterol group >300 mg/dl, 4th week, before medication 348.8 ± 56.36
  Total serum cholesterol: 273.8 ± 29.38 mg/dL
Super high cholesterol group >300 mg/dl, 8th week
  Total serum cholesterol, change vs before medication: −28.9% (n = 20)
Super high cholesterol group >300 mg/dl, 8th week, before medication 348.8 ± 56.36
  Total serum cholesterol: 248.5 ± 36.01 mg/dL
Super high cholesterol group >300 mg/dl, 12th week
  Total serum cholesterol, change vs before medication: −30.0% (n = 21)
Super high cholesterol group >300 mg/dl, 12th week, before medication 348.8 ± 56.36
  Total serum cholesterol: 244.2 ± 36.59 mg/dL
Abnormal high value group, greater than 120 mg/dl
  Serum neutral fat: significantly decreased
After 12 weeks, at the sign-up time 1.24±0.154
  body weight index (body weight divided by standard body weight): 1.18±0.137
[2]
  number of patients with fasting blood sugar level No change or increase: 11
  number of patients with reduction rate of fasting blood sugar level 20-10%: 8
  number of patients with reduction rate of fasting blood sugar level <10%: 7
  number of patients with reduction rate of fasting blood sugar level >20%: 3
[3]
  number of patients with total serum cholesterol No change or increase: 11
  number of patients with total serum cholesterol decreasing rate 20-10%: 6
  number of patients with total serum cholesterol decreasing rate <10%: 5
  number of patients with total serum cholesterol decreasing rate >20%: 9
[4]
  number of patients with fasting blood sugar level No change or increase: 4
  number of patients with reduction rate of fasting blood sugar level 20-10%: 8
  number of patients with reduction rate of fasting blood sugar level <10%: 6
  number of patients with reduction rate of fasting blood sugar level >20%: 6
[5]
  number of patients with total serum cholesterol No change or increase: 4
  number of patients with total serum cholesterol decreasing rate 20-10%: 2
  number of patients with total serum cholesterol decreasing rate <10%: 1
  number of patients with total serum cholesterol decreasing rate >20%: 18
[6]
  number of patients with total serum cholesterol No change or increase: 1
  number of patients with total serum cholesterol decreasing rate 20-10%: 0
  number of patients with total serum cholesterol decreasing rate <10%: 1
  number of patients with total serum cholesterol decreasing rate >20%: 11
[7]
  number of patients with fasting blood sugar level No change or increase: 3
  number of patients with reduction rate of fasting blood sugar level 20-10%: 3
  number of patients with reduction rate of fasting blood sugar level <10%: 4
  number of patients with reduction rate of fasting blood sugar level >20%: 8
Borderline hypertensive patients (n = 14), 4th week, before medication 92 ± 3.0
  Blood pressure, Diastolic period: 86 ± 2.4 mmHg
Borderline hypertensive patients (n = 14), 4th week, before medication 156 ± 5.4
  Blood pressure, Systolic period: 149 ± 3.8 mmHg
Borderline hypertensive patients (n = 14), 8th week, before medication 92 ± 3.0
  Blood pressure, Diastolic period: 86 ± 3.3 mmHg
Borderline hypertensive patients (n = 14), 8th week, before medication 156 ± 5.4
  Blood pressure, Systolic period: 147 ± 3.3 mmHg
Borderline hypertensive patients (n = 14), 12th week, before medication 92 ± 3.0
  Blood pressure, Diastolic period: 86 ± 4.1 mmHg
Borderline hypertensive patients (n = 14), 12th week, before medication 156 ± 5.4
  Blood pressure, Systolic period: 149 ± 5.5 mmHg
Group having a fasting blood sugar level of greater than 130 mg/dl
  blood sugar decreasing effect: has a significant blood sugar decreasing effect
Group with serum neutral fat <120 mg/dl, 4th week
  Serum neutral fat, change vs before medication: −9.3% (n = 6)
Group with serum neutral fat <120 mg/dl, 4th week, before medication 96.2 ± 12.57
  Serum neutral fat: 88.5 ± 32.93 mg/dL
Group with serum neutral fat <120 mg/dl, 8th week
  Serum neutral fat, change vs before medication: −15.7% (n = 7)
Group with serum neutral fat <120 mg/dl, 8th week, before medication 96.2 ± 12.57
  Serum neutral fat: 85.7 ± 24.64 mg/dL
Group with serum neutral fat <120 mg/dl, 12th week
  Serum neutral fat, change vs before medication: −5.2% (n = 8)
Group with serum neutral fat <120 mg/dl, 12th week, before medication 96.2 ± 12.57
  Serum neutral fat: 90.3 ± 22.32 mg/dL
Group with serum neutral fat >120 mg/dl, 4th week
  Serum neutral fat, change vs before medication: −15.5% (n = 56)
Group with serum neutral fat >120 mg/dl, 4th week, before medication 215.7 ± 83.96
  Serum neutral fat: 182.6 ± 68.26 mg/dL
Group with serum neutral fat >120 mg/dl, 8th week
  Serum neutral fat, change vs before medication: −23.2% (n = 52)
Group with serum neutral fat >120 mg/dl, 8th week, before medication 215.7 ± 83.96
  Serum neutral fat: 172.7 ± 62.84 mg/dL
Group with serum neutral fat >120 mg/dl, 12th week
  Serum neutral fat, change vs before medication: −25.4% (n = 61)
Group with serum neutral fat >120 mg/dl, 12th week, before medication 215.7 ± 83.96
  Serum neutral fat: 167.8 ± 72.93 mg/dL
Hypertension group, 4 weeks after medication, text: no significant difference
  decrease of systolic pressure: 10 mmHg
Hypertensive patients (n = 7), 4th week, before medication 97 ± 3.0
  Blood pressure, Diastolic period: 91 ± 3.0 mmHg
Hypertensive patients (n = 7), 4th week, before medication 175 ± 10.4
  Blood pressure, Systolic period: 165 ± 15.6 mmHg
Hypertensive patients (n = 7), 8th week, before medication 97 ± 3.0
  Blood pressure, Diastolic period: 90 ± 5.1 mmHg
Hypertensive patients (n = 7), 8th week, before medication 175 ± 10.4
  Blood pressure, Systolic period: 161 ± 13.9 mmHg
Hypertensive patients (n = 7), 12th week, before medication 97 ± 3.0
  Blood pressure, Diastolic period: 89 ± 4.0 mmHg
Hypertensive patients (n = 7), 12th week, before medication 175 ± 10.4
  Blood pressure, Systolic period: 158 ± 15.7 mmHg
Normal blood sugar group, fasting blood sugar level of 130 mg/dl or less
  blood sugar decreasing effect: does not have a blood sugar decreasing effect
Normal group, serum total cholesterol 220 mg/dl or less
  concentration of serum cholesterol: did not change the concentration of serum cholesterol significantly
Normal value group, 120 mg/dl or less
  Serum neutral fat: only a tendency to decrease
Patients of type II diabetes complicated with borderline hypertensive
  antihypertensive effect: highly significant antihypertensive effect
Super high value group and high value group
  total cholesterol values: further significantly decreased

Source: patent US20050153870A1, “Medicinal composition for diagnosis, prevention, or therapy of multiple risk factor syndrome” (priority 2002, published 2005)
